The subject of one assay is S. typhosa LPS. The arrangement: species or system mice. Particulars: mouse, in vivo; for Survival increase (%): iv.
For a further assay, the system named is E. coli LPS. Set-up: species or system mice. Particulars: mouse, in vivo.
Assay [1] concerns SEB (Staphylococcus aureus) enterotoxin. Set-up: species or system mice. Particulars: mouse, in vivo.
In assay [2] the test system is TNF. Nature of the assay: Serum TNF after Salmonella typhosa LPS in mice. The format is in vivo. Particulars: 6 mg/kg i.v., −30/+5 min schedule, LPS control 154.2. As for the experimental part: Animals were treated intraperitoneally (i.p.) with S. typhosa LPS. Prior to use, the endotoxin was first dissolved in sterile saline and then injected in a volume of 200 μL, at the dose of 27.0 mg/kg, corresponding to about the LD80.
The compounds tested were administered intravenously (i.v.) in a volume of 200 μL of sterile saline at the dose approximately corresponding to 1/10 LD50, 30 min before and again 5 min after the endotoxic challenge (LPS).
In both experimental models, blood samples were taken 90 min after the challenge (peak serum TNF level).
Ether-anaesthetised mice were bled by retro-orbital sinus puncture.
Blood samples were incubated at room temperature for 2 h and the serum thus obtained was centrifuged for 20 min at 3000 rpm and stored at −80° C. pending TNF assay.
TNF biological activity was determined in RPMI medium containing 1% FCS.
50 μL/well of serial dilutions of samples containing TNF were added directly to the Primaria microtiter plates.
The experimental conditions utilised were the same as those previously described.
Data were analysed statistically using the one-tailed Student's t test.

Assay [3] has as its system TNF. Nature of the assay: TNF production induced by LPS in rat blood culture. The format is cell-based.
The test system of assay [4] is TNF. Set-up: species or system mice. Particulars: mouse, in vivo.
Assay [5] concerns TNF. The arrangement: species or system mice. The following applies: mouse, in vivo. This is another data set of the same source.
Another assay concerns IL-1β. Set-up: species or system mice. The following applies: mouse, in vivo.
The subject of another assay is IL-6. Set-up: species or system mice. Particulars: mouse, in vivo.
A further assay has as its system IFN-γ. Set-up: species or system mice. Particulars: mouse, in vivo.

This note sets out measurements from patent publication US6849663B2, “2-Aminotetralines, a process for their preparation, and pharmaceutical compositions, for the prevention and therapeutic treatment of inflammatory and/or autoimmune pathologies” (Sigma-Tau Industrie Farmaceutiche Riunite S.p.A., priority 1997, dated 2005).

Each structure is given as a SMILES string. Where “and” joins values, the source holds several entries; their conditions need not be identical. Identical values can stand only once. Counter-ions that a name gives are not always drawn. Like-named read-outs stand apart in the source and are kept apart here.

On to `Cc1cc2c(cc1F)CC[C@@H](N)C2.Cl` (racemic) [ST 1275, (R,S)-2-amino-6-fluoro-7-methyltetraline hydrochloride], for which the Dead/Total is given as 6/10 in the assay with S. typhosa LPS, 5/10 in the assay with E. coli LPS and 1/10 in assay [1]. The “effect on lethality (in words)” value in the assay with S. typhosa LPS was “significantly reduce the lethality”. In addition, the “Survival increase (%)” value is “+40%” in the assay with S. typhosa LPS and “+80%” in assay [1] (iv).
Consider `COc1cc2c(cc1F)CC[C@@H](N)C2` (racemic) [ST 626, (R,S)-2-amino-6-fluoro-7-methoxytetraline hydrochloride, reference compound], for which the Dead/Total was 6/20 in the assay with S. typhosa LPS and 21/28 in the assay on E. coli LPS. In addition, the “Survival increase (%)” value was “+40%” in the assay on S. typhosa LPS and “+11%” in the assay with E. coli LPS (iv). Further, the “TNF (U/mL) Mean” value in the assay with TNF [2] came to 35.0 U/mL.
Consider `Cl.N[C@@H]1CCc2cc(F)c(O)cc2C1` [ST 1238, R(+)-2-amino-6-fluoro-7-hydroxytetraline hydrochloride], for which, in the assay with E. coli LPS, the “Survival increase (%)” value was “+44%” and the “effect on lethality (in words)” value was “significantly reduces the lethality”. For the same molecule, in the assay on E. coli LPS (iv), the “Survival increase (%)” value is reported as “+60%”. For the same molecule, in the assay with E. coli LPS (hydrochloride), the Dead/Total is 5/20 and 7/19. In assay [1], the “Survival increase (%)” value is listed as “+70%” and the “protective effect (in words)” value was “extremely significant protective effect”. Also, the “Survival increase (%)” value in [1] (iv) is given as “+70%”. For the same molecule, the Dead/Total in assay [1] (hydrochloride) was 1/20 and 4/20. In the assay on TNF [3], the “TNF (mean % values)” value was found to be 61%. Moreover, the “reduction of TNF production” value in the assay with TNF [3] (rat blood cultures stimulated with LPS, compound 50 μM) is 39%. Besides, in the assay on TNF [4], the “effect on TNF levels (in words)” value was “significantly reduces TNF levels”. In the assay with TNF [5], the “TNF (U/mL) Mean” value was found to be 6.2 U/mL, the “TNF (U/mL) mean” value was 27.0 U/mL and the “effect on TNF production (in words)” value is listed as “significantly reduces TNF production”. The “IL-1β (pg/mL) Mean” value with IL-1β is listed as 0.9 pg/mL. Moreover, in the assay on IL-6, the “IL-6 (pg/mL) Mean” value stood at 599 pg/mL and the “effect on IL-6 production (in words)” value is “significantly reduces the production”. In the assay on IFN-γ, the “IFN-γ (pg/mL) Mean” value is recorded as 25 pg/mL and the “effect on IFN-γ production (in words)” value is on record as “significantly reduces the production”.
With `CC(=O)c1cc2c(cc1C)CC[C@@H](N)C2.Cl` (racemic) [ST 1274, (R,S)-7-acetyl-2-amino-6-methyltetraline hydrochloride], the results for the Dead/Total (in the assay on S. typhosa LPS; in the assay on E. coli LPS; in assay [1]) were 10/20, 5/10 and 0/10, respectively. The “effect on lethality (in words)” value in the assay on S. typhosa LPS is recorded as “significantly reduce the lethality”. Besides, the figures for the “Survival increase (%)” value (in the assay on S. typhosa LPS; in [1] (iv)) were “+40%” and “+90%”, respectively.
